According to patent US5376673A, “Isoindoles having cardiovascular activity” (Italfarmaco S.p.A., priority 1991, dated 1994):
pIC50: −log10 of the molar value.

Tests used:
[1] = system: Sprague Dawley anaesthetized rats; assay: Vasopressine angina in the anaesthetized rat (in vivo antianginal activity); parameters: species or system Sprague Dawley rat; details: 3 mg/kg by gastric gavage, 1 hour before Arg-vasopressin i.v.
Method: The in vivo antianginal activity was evidenced on Sprague Dawley anaesthetized rats, weighing 350-400 g, operating according to the procedure of M. Leitold et al., Arzneim. Forsch. 36, 1454, 1986. The test was carried out administering the animal intravenously with 1 I. U./kg, equivalent to […] of Arg-vasopressin, which induces a coronary spasm which can be reproduced and evidenced electrocardiographycally with an increase in the amplitude of the T wave. The compounds of the invention were admininistered by gastric gavage at a dose of 3 mg/kg, 1 hour before administration of Argvasopressin. The antianginal effect was expressed as percent inhibition of the T wave increase versus controls.

rabbit aorta = assay: In vitro vasorelaxing activity (aorta strip contracted with noradrenaline); details: Oryctolagus cuniculus, contraction induced by noradrenaline
Method: The vasorelaxing activity of the compounds of the invention was determined on rabbit aorta which had been contracted with noradrenaline, according to the method described in Eur. J. Pharmacol, 141, 195 (1987).
IC50 = concentration of active substance, expressed in mole/liter,
able to inhibit by 50% the contraction of the aorta "strip" induced by […]

Structure (SMILES)	Effect (percent inhibition of the T wave increase versus controls) [1]	pIC50 (rabbit aorta)
CCCC(=O)OC1c2ccccc2C(=O)N1CCO[N+](=O)[O-] (centres unmarked) [Example 3]	-55.2%	5.62
O=C1c2ccccc2C(O)N1CCO[N+](=O)[O-] (centres unmarked) [Example 1, 3-Hydroxy-2-(2-nitrooxyethyl)-1-oxoisoindolin]	-56.1%	5.89
O=C1c2ccccc2C(O)N1CCCCCO[N+](=O)[O-] (centres unmarked) [Example 5, 3-Hydroxy-2-(5-nitrooxypentyl)-1-oxoisoindolin]	–	4.89
CC(=O)OC1c2ccccc2C(=O)N1CCO[N+](=O)[O-] (centres unmarked) [Example 2, 3-Acetoxy-2-(2-nitrooxyethyl)-1-oxoisoindolin]	–	5.92
O=C(OC1c2ccccc2C(=O)N1CCO[N+](=O)[O-])c1ccccc1 (centres unmarked) [Example 4, 3-Benzoyloxy-2-(5-nitrooxyethyl)-1-oxoisoindolin]	-34.5%	5.49
